# According to ChEMBL document CHEMBL4483862, “Open-source discovery of chemical leads for next-generation chemoprotective antimalarials” (2018):
# Test system: Plasmodium berghei
# Test: Luciferase/luciferin-expressing antifolate-resistant parasites were used to infect a culture of HepG2 cells that were pre-incubated with compounds. Infected hepatocytes emit light due to the luciferase reaction. Assay results are presented as the percent inhibition of light emission compared to control. […]
# Type: functional
# Conditions: sporozoite; for IC90: read-out: LUCIFERASE INFECTION ASSAY - IC90
Compound,IC90,other results
NS(=O)(=O)c1ccc(CCNc2nn3c(-c4ccc(F)c(Cl)c4)cnc3s2)cc1,> 7.3 µM,"IC50 (FFLUC_HILL_SLOPE 96, FFLUC_R_SQUARED 0.344, HEPG2TOX_HILL_SLOPE 2.59, HEPG2TOX_R_SQUARED 0.44, read-out: LUCIFERASE INFECTION ASSAY - IC50): > 7.3 µM"
O=[N+]([O-])c1cnc(Sc2nc3cc(Cl)ccc3s2)s1,> 10 µM,"IC50 (FFLUC_HILL_SLOPE 97.7, FFLUC_R_SQUARED 0.0466, read-out: LUCIFERASE INFECTION ASSAY - IC50): > 10 µM"
O=C(NC(=S)NNc1ncc(C(F)(F)F)cc1Cl)c1ccccc1,0.377 µM,"IC50 (FFLUC_HILL_SLOPE 148, FFLUC_R_SQUARED 0.758, HEPG2TOX_HILL_SLOPE 0.501, HEPG2TOX_R_SQUARED 0.887, PBLUC_HILL_SLOPE 13.6, PBLUC_R_SQUARED 0.819, read-out: LUCIFERASE INFECTION ASSAY - IC50): 0.321 µM"
COc1cc(Cl)c(C)cc1NC(=O)Cn1c(=O)c(=O)n(Cc2ccccc2)c2ccc(Cl)cc21,> 10 µM,"IC50 (FFLUC_HILL_SLOPE 92.5, FFLUC_R_SQUARED 0.216, PBLUC_HILL_SLOPE 2.05, PBLUC_R_SQUARED 0.328, read-out: LUCIFERASE INFECTION ASSAY - IC50): 4.54 µM"
O=C(/C=C/c1ccc(-n2cncn2)c(F)c1)c1cccc(OC(F)F)c1,5.45 µM,"IC50 (FFLUC_HILL_SLOPE 115, FFLUC_R_SQUARED 0.0591, PBLUC_HILL_SLOPE 174, PBLUC_R_SQUARED 0.383, read-out: LUCIFERASE INFECTION ASSAY - IC50): 5.39 µM"
CCc1nnc(SCc2cc(=O)n3c(C)csc3n2)[nH]1,> 10 µM,"IC50 (FFLUC_HILL_SLOPE 120, FFLUC_R_SQUARED 0.18, read-out: LUCIFERASE INFECTION ASSAY - IC50): > 10 µM"
CC(C)(C)c1ccc(CSc2nnc(-c3ccco3)n2-c2ccc(OCc3ccccc3)cc2)cc1,> 6.66 µM,"IC50 (FFLUC_HILL_SLOPE 93.6, FFLUC_R_SQUARED 0.0881, read-out: LUCIFERASE INFECTION ASSAY - IC50): > 6.66 µM"
O=[N+]([O-])c1cnc(Sc2ccc(C(F)(F)F)cn2)s1,10.5 µM,"IC50 (FFLUC_HILL_SLOPE 78.7, FFLUC_R_SQUARED 0.547, HEPG2TOX_HILL_SLOPE 11.7, HEPG2TOX_R_SQUARED 0.958, PBLUC_HILL_SLOPE 15.1, PBLUC_R_SQUARED 0.404, read-out: LUCIFERASE INFECTION ASSAY - IC50): 9.04 µM"
Cc1ccc(N2C(=O)C=CC2=O)cc1Cl,> 14.9 µM,"IC50 (FFLUC_HILL_SLOPE 79.3, FFLUC_R_SQUARED 0.497, PBLUC_HILL_SLOPE 1.92, PBLUC_R_SQUARED 0.35, read-out: LUCIFERASE INFECTION ASSAY - IC50): 6.38 µM"
Cn1ccnc1Sc1c[nH]c(=S)nc1-c1ccc(Cl)cc1,9.04 µM,"IC50 (FFLUC_HILL_SLOPE 122, FFLUC_R_SQUARED 0.312, PBLUC_HILL_SLOPE 4.61, PBLUC_R_SQUARED 0.38, read-out: LUCIFERASE INFECTION ASSAY - IC50): 5.61 µM"
O=C1C=CC(=O)N1c1cccc(Cl)c1Cl,> 13.6 µM,"IC50 (FFLUC_HILL_SLOPE 90.3, FFLUC_R_SQUARED 0.368, read-out: LUCIFERASE INFECTION ASSAY - IC50): > 13.6 µM"
Cc1nn(-c2ccccc2)c(C)c1-c1nc(-c2ccccc2)no1,5.81 µM,"IC50 (FFLUC_HILL_SLOPE 123, FFLUC_R_SQUARED 0.665, PBLUC_HILL_SLOPE 0.902, PBLUC_R_SQUARED 0.808, read-out: LUCIFERASE INFECTION ASSAY - IC50): 0.508 µM"
Cc1nc(SCc2cccc(C(F)(F)F)c2)c2c(-c3cccs3)csc2n1,> 10 µM,"IC50 (FFLUC_HILL_SLOPE 83.3, FFLUC_R_SQUARED 0.372, read-out: LUCIFERASE INFECTION ASSAY - IC50): > 10 µM"
CCOc1cc2c(cc1CNC(=O)Cn1cnc3c(cnn3-c3ccccc3)c1=O)OC(C)C2 (stereo not given),> 10 µM,"IC50 (FFLUC_HILL_SLOPE 95.3, FFLUC_R_SQUARED 0.504, HEPG2TOX_HILL_SLOPE 1.9, HEPG2TOX_R_SQUARED 0.749, read-out: LUCIFERASE INFECTION ASSAY - IC50): > 10 µM"
CCOC(=O)c1c(-c2ccc(F)cc2)csc1NC(=O)CSc1nc2c(c(CC)c1C#N)C(=O)CC(C)(C)C2,> 10 µM,"IC50 (FFLUC_HILL_SLOPE 86.7, FFLUC_R_SQUARED 0.56, PBLUC_HILL_SLOPE 13.6, PBLUC_R_SQUARED 0.125, read-out: LUCIFERASE INFECTION ASSAY - IC50): 8.71 µM"
CCOC(=O)/C=c1\s/c(=C\c2ccc(N3CCCCC3)c([N+](=O)[O-])c2)c(=O)n1CC(=O)N1CCC(C)CC1,> 10 µM,"IC50 (FFLUC_HILL_SLOPE 86.1, FFLUC_R_SQUARED 0.469, PBLUC_HILL_SLOPE 14.4, PBLUC_R_SQUARED 0.0813, read-out: LUCIFERASE INFECTION ASSAY - IC50): > 10 µM"
Cc1ccc2nc(NC(=O)c3ccc(C#N)cc3)c(C(=O)NC3CCCC3)n2c1,0.336 µM,"IC50 (FFLUC_HILL_SLOPE 93.7, FFLUC_R_SQUARED 0.282, HEPG2TOX_HILL_SLOPE 0.845, HEPG2TOX_R_SQUARED 0.968, PBLUC_HILL_SLOPE 14.4, PBLUC_R_SQUARED 0.874, read-out: LUCIFERASE INFECTION ASSAY - IC50): 0.288 µM"
COc1ccc(C2=C(NCCc3ccccc3)c3ccccc3C2=O)cc1,0.404 µM,"IC50 (FFLUC_HILL_SLOPE 105, FFLUC_R_SQUARED 0.774, PBLUC_HILL_SLOPE 1.53, PBLUC_R_SQUARED 0.754, read-out: LUCIFERASE INFECTION ASSAY - IC50): 0.096 µM"
Cc1occc1C(=O)NN=CC1C(=O)N(Cc2ccccc2)C(=O)c2ccccc21 (stereo not given),7.7 µM,"IC50 (FFLUC_HILL_SLOPE 77.8, FFLUC_R_SQUARED 0.432, HEPG2TOX_HILL_SLOPE 1.95, HEPG2TOX_R_SQUARED 0.861, PBLUC_HILL_SLOPE 6.12, PBLUC_R_SQUARED 0.278, read-out: LUCIFERASE INFECTION ASSAY - IC50): 5.38 µM"
O=C(COC(=O)c1ccccc1NCCO)NC1c2ccccc2-c2ccccc21,4.07 µM,"IC50 (FFLUC_HILL_SLOPE 129, FFLUC_R_SQUARED 0.809, HEPG2TOX_HILL_SLOPE 1.96, HEPG2TOX_R_SQUARED 0.833, PBLUC_HILL_SLOPE 15.2, PBLUC_R_SQUARED 0.28, read-out: LUCIFERASE INFECTION ASSAY - IC50): 3.52 µM"
O=c1[nH]nc(Sc2ncc([N+](=O)[O-])s2)n1-c1ccccc1C(F)(F)F,> 8.48 µM,"IC50 (FFLUC_HILL_SLOPE 106, FFLUC_R_SQUARED 0.375, read-out: LUCIFERASE INFECTION ASSAY - IC50): > 8.48 µM"
CN(C)c1ccc(/C=c2\s/c(=C\C#N)n(CC(=O)c3ccccc3)c2=O)cc1,> 10 µM,"IC50 (FFLUC_HILL_SLOPE 120, FFLUC_R_SQUARED 0.489, HEPG2TOX_HILL_SLOPE 0.599, HEPG2TOX_R_SQUARED 0.179, PBLUC_HILL_SLOPE 1.11, PBLUC_R_SQUARED 0.152, read-out: LUCIFERASE INFECTION ASSAY - IC50): 5.8 µM"
COc1cc(C2NCC(c3ccccc3Cl)c3c2[nH]c2ccccc32)ccc1OCc1cccc(C(F)(F)F)c1 (stereo not given),> 10 µM,"IC50 (FFLUC_HILL_SLOPE 97, FFLUC_R_SQUARED 0.0371, HEPG2TOX_HILL_SLOPE 1.2, HEPG2TOX_R_SQUARED 0.293, PBLUC_HILL_SLOPE 8.25, PBLUC_R_SQUARED 0.22, read-out: LUCIFERASE INFECTION ASSAY - IC50): 8.46 µM"
CCCNC(=O)c1c(NC(=O)c2cccc(Cl)c2)nc2ccccn12,1.11 µM,"IC50 (FFLUC_HILL_SLOPE 126, FFLUC_R_SQUARED 0.738, HEPG2TOX_HILL_SLOPE 0.804, HEPG2TOX_R_SQUARED 0.952, PBLUC_HILL_SLOPE 15.4, PBLUC_R_SQUARED 0.753, read-out: LUCIFERASE INFECTION ASSAY - IC50): 0.96 µM"
CCCCNC(=O)c1c(NC(=O)c2cccc(C)c2)nc2ccc(C)cn12,3.17 µM,"IC50 (FFLUC_HILL_SLOPE 134, FFLUC_R_SQUARED 0.564, HEPG2TOX_HILL_SLOPE 2.72, HEPG2TOX_R_SQUARED 0.791, PBLUC_HILL_SLOPE 3.36, PBLUC_R_SQUARED 0.556, read-out: LUCIFERASE INFECTION ASSAY - IC50): 1.65 µM"
O=S(=O)(c1ccc(-c2cc(-c3ccccc3Cl)c3cc(Cl)ccc3n2)cc1)N1CCCCC1,> 10 µM,"IC50 (FFLUC_HILL_SLOPE 79.3, FFLUC_R_SQUARED 0.555, read-out: LUCIFERASE INFECTION ASSAY - IC50): > 10 µM"
O=C(NNC(=O)c1csc(COc2ccccc2Cl)n1)c1ccc(Cl)cc1,7.14 µM,"IC50 (FFLUC_HILL_SLOPE 94.2, FFLUC_R_SQUARED 0.775, HEPG2TOX_HILL_SLOPE 11.4, HEPG2TOX_R_SQUARED 0.575, PBLUC_HILL_SLOPE 4.49, PBLUC_R_SQUARED 0.337, read-out: LUCIFERASE INFECTION ASSAY - IC50): 4.37 µM"
O=C(Nc1ccc(OC(F)(F)F)cc1)Nc1ccccc1Sc1ncc([N+](=O)[O-])cc1C(F)(F)F,> 6.37 µM,"IC50 (FFLUC_HILL_SLOPE 90.5, FFLUC_R_SQUARED 0.394, read-out: LUCIFERASE INFECTION ASSAY - IC50): > 6.37 µM"
O=C(c1cc(F)cc(F)c1)N1[C@@H]2CC[C@@H](C2)[C@H]1c1nc2c(OCCC3CCCCC3)cccc2[nH]1,> 10 µM,"IC50 (FFLUC_HILL_SLOPE 146, FFLUC_R_SQUARED 0.488, HEPG2TOX_HILL_SLOPE 10.5, HEPG2TOX_R_SQUARED 0.576, PBLUC_HILL_SLOPE 12.2, PBLUC_R_SQUARED 0.352, read-out: LUCIFERASE INFECTION ASSAY - IC50): 9.64 µM"
N#Cc1c(N2CCCCCC2)nc(N)c2c(N)nc3c(c12)CC(=O)N3c1ccc(F)cc1,1.19 µM,"IC50 (FFLUC_HILL_SLOPE 141, FFLUC_R_SQUARED 0.168, PBLUC_HILL_SLOPE 30.3, PBLUC_R_SQUARED 0.605, read-out: LUCIFERASE INFECTION ASSAY - IC50): 1.1 µM"
